Data as given in ChEMBL document CHEMBL4219043, “Beyond the Rule of 5: Lessons Learned from AbbVie's Drugs and Compound Collection” (J Med Chem, 2018).

Columns and labels:
RS4-11 = assay: Antiproliferative activity against human RS4:11 cells in presence of 10% human serum; assay type: functional, cell-based
MOLT-4 = assay: Antiproliferative activity against human MOLT4 cells in presence of 10% human serum; assay type: functional, cell-based
[1] = target: Apoptosis regulator Bcl-2 (Homo sapiens, UniProt P10415); assay: Inhibition of Bcl2 (unknown origin)
Apoptosis regulator Bcl-2, sequence (P10415 whole entry): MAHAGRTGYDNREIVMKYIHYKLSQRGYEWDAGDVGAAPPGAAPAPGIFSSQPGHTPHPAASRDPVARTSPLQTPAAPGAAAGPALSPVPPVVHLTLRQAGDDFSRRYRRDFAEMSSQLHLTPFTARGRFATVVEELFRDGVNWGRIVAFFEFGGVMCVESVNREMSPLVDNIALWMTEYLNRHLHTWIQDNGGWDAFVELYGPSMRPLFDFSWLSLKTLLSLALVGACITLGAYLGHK

[2] = Oral bioavailability in dog; assay type: ADME, organism-based, Canis lupus familiaris; details: in vivo

| SMILES | EC50 (RS4-11) [nM] | EC50 (MOLT-4) [nM] | Ki [1] [nM] | bioavailability [2] [%] |
| --- | --- | --- | --- | --- |
| CO[C@H]1CC[C@H](CNc2ccc(S(=O)(=O)NC(=O)c3ccc(N4CCN(CC5=C(c6ccc(Cl)cc6)CC(C)(C)CC5)CC4)cc3Oc3cnc4[nH]ccc4c3)cc2[N+](=O)[O-])CC1 [A-1211212] | 6 | > 5000 | < 0.01 | – |
| CC1(C)CCC(c2ccc(Cl)cc2)=C(CN2CCN(c3ccc(C(=O)NS(=O)(=O)c4ccc(N[C@H](CCN5CCOCC5)CSc5ccccc5)c(S(=O)(=O)C(F)(F)F)c4)cc3)CC2)C1 [NAVITOCLAX] | 112 | 303 | – | 48 |
